# Experimental data published in publication PMC10985113, “Exploring bi-carbazole-linked triazoles as inhibitors of prolyl endo peptidase via integrated in vitro and in silico study” (Scientific Reports, 2024).
# Tests used:
# [1] = tested on: human fibroblast BJ cell line; test: Cytotoxicity evaluation (MTT) on BJ cell line; assay type: cell-based; conditions: BJ cells; for Cytotoxicity effect / % Inhibition ± SEM (µM): 60 µM; for % Inhibition of cell viability (60 µM) / inhibition at 60 µM / % Inhibition ± SEM (µM): 48 h; for inhibition at 60 µM: Homo sapiens, read-out: % Inhibition ± SEM; for inhibition at 60 µM / % Inhibition ± SEM (µM): mean of three
# Protocol: To investigate the cytotoxic effect of these compounds we proceeded all the active compounds 3–9 for their in-vitro study by using BJ cell line. Here we designed our experiment with a specific count of the cells with 6 × 10^4 cells/well were employed into the plate. In each well we added 100 µL followed by 24 h incubation at specific temperature 37 °C in 5% CO2. After that, the 96-well plate was incubated with 50 µL/well (60 µM) of the tested compounds along with 150 µL/well fresh media for 48 h at the similar specific experimental conditions. After 2nd time of incubation, the old media was replaced with 200 µL yellow MTT dye in each well according to 1:10 ratio with the media followed by 4-h incubation. In the next step the dye was removed completely and DMSO (Dimethyl sulfoxide) cell culture grade 100 µL/well was employed into the 96-well plate to dissolve the produced formazan crystals of MTT dye converted into purple. At the end of experiment the obtained changes in the (OD) optical density was monitored at 540 by using spectrophotometer.
# [2] = molecular target: prolyl endopeptidase (Elizabethkingia meningoseptica, UniProt P27028); test: In vitro prolyl endopeptidase inhibitory assay (spectrophotometric, Z-Gly-Pro-4-nitroanilide substrate); assay type: biochemical; conditions: triplicate, ± SEM; read-out: (IC50 ± µM) in vitro prolyl endo peptidase inhibitory activity
# Sequence of prolyl endopeptidase (P27028 21-705): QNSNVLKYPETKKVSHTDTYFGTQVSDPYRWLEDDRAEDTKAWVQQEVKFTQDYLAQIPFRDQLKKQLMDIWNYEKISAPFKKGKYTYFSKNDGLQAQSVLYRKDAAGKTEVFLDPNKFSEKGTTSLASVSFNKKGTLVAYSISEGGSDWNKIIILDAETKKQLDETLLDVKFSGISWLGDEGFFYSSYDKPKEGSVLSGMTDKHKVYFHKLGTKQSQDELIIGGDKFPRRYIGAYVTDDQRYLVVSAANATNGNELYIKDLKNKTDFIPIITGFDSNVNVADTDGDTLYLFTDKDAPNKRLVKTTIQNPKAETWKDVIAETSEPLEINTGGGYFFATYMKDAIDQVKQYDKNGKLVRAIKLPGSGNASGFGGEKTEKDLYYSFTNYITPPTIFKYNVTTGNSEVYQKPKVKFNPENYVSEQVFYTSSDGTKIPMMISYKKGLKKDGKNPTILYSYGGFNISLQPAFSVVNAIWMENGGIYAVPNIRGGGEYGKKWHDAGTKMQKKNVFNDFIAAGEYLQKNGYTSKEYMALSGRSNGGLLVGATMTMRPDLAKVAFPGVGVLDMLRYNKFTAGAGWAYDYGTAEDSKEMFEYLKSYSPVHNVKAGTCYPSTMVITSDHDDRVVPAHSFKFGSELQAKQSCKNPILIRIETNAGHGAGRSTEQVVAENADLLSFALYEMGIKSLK
# Protocol: Prolyl endopeptidase inhibitory activity was measured using a slightly modified version of Yoshimoto et al. spectrophotometric technique. In a 96-well plate, 140 µL of sodium phosphate buffer (50 mM, pH 7.0), 20 µL of the test substance (0.5 mM in methanol), and 20 µL of prolyl endopeptidase solution (0.02 U/well) were added to provide a total reaction volume of […]. Blank contained 20 µL methanol, instead of the test compound, while Z-prolyl-prolinal (0.5 mM) was used as the positive control. After the reaction mixture had been incubated at 30 °C for 10 min. Now 20 µL of the substrate solution, Z-Gly-Pro-4-nitroanilide (0.4 mM in 1,4-dioxane), was added, and a 96-well plate reader was used to continually monitor the change in absorbance at 410 nm for 30 min (SpectraMax-384, Molecular Devices, CA, USA). The reaction mixture's ultimate methanol and 1,4-dioxane concentrations were 10% v/v. In 96-well microplates, each reaction was carried out in triplicate.
# The current study's experiments were all carried out in triplicate, and the data were presented as the standard error of the mean (SEM). Using the statistical software EZ-FIT enzyme kinetics, the IC50 values were determined (Perrella Scientific, Inc., Amherst, NH 03031, USA). […] (1) and (2).1 %Inhibition=100-O.Dtestcompound/O.Dcontrol×100 2 SE=σ/n
# [3] = tested on: prolyl endo peptidase; test: Kinetic studies (Lineweaver-Burk, Dixon plots) on PEP; assay type: biochemical; conditions: for Ki: substrate Z-Gly-Pro-pNA 0.2-0.5 mM
# Protocol: Secondary replot of Line weaver-Burk plot between the slopes of each line on-Line weaver-Burk plot versus different concentrations of compounds 7, 8 (B, E). Dixon plot of reciprocal of rate of reaction (velocities) versus different concentrations of compounds 7, 8 (C, F).
# In kinetic study PEP (0.02 U/200 L) was incubated with a range of inhibitor different concentrations for 10 min at 30 °C. The substrate was often utilized at doses between 0.2 and 0.5 mM. The substrate solutions (Z-Gly-Pro-pNA) were added at four different concentrations (0.2, 0.3, 0.4, and 0.5 mM), starting with the lowest concentration and working up to the highest concentration, to begin the catalytic reaction. Using a 96-well plate reader, the catalytic activity of PEP was measured at 410 nm (SpectraMax-384, Molecular Devices, CA, USA).
Molecule,Cytotoxicity effect [1],% Inhibition of cell viability (60 µM) ([1]; first replicate column),% Inhibition of cell viability (60 µM) ([1]; second replicate column),% Inhibition of cell viability (60 µM) ([1]; third replicate column),inhibition at 60 µM [1],IC50 [2],% Inhibition ± SEM (µM) [1],type (pattern) of inhibition [3],Ki [3]
O=C(Cn1cc(Cn2c3ccccc3c3cc(-c4ccc5c(c4)c4ccccc4n5Cc4cn(CC(=O)c5ccccc5)nn4)ccc32)nn1)c1ccccc1 [Compound 5],Non-toxic,25.14%,22.74%,20.35%,22.8 ± 1.38%,–,–,–,–
O=C(Cn1cc(Cn2c3ccccc3c3cc(-c4ccc5c(c4)c4ccccc4n5Cc4cn(CC(=O)c5ccc(Br)cc5)nn4)ccc32)nn1)c1ccc(Br)cc1 [Compound 8],Non-toxic,19.52%,25.14%,25.14%,–,28.3 ± 0.64 µM,23.27 ± 1.87%,mixed,23.67 ± 0.0084 µM
Cc1ccc(C(=O)Cn2cc(Cn3c4ccccc4c4cc(-c5ccc6c(c5)c5ccccc5n6Cc5cn(CC(=O)c6ccc(C)cc6)nn5)ccc43)nn2)cc1 [Compound 6],Non-toxic,21.55%,20.35%,23.95%,21.9 ± 1.05%,–,–,–,–
COc1ccc(C(=O)Cn2cc(Cn3c4ccccc4c4cc(-c5ccc6c(c5)c5ccccc5n6Cc5cn(CC(=O)c6ccc(OC)cc6)nn5)ccc43)nn2)cc1 [Compound 9],Non-toxic,16.75%,21.55%,19.16%,–,31.1 ± 0.84 µM,19.16 ± 1.38%,–,–
C=Cn1c2ccccc2c2ccccc21 [Compound 3],Non-toxic,26.34%,22.74%,23.95%,24.4 ± 1.1%,–,–,–,–
C=Cn1c2ccccc2c2cc(-c3ccc4c(c3)c3ccccc3n4C=C)ccc21 [Compound 4],Non-toxic,22.75%,21.55%,26.34%,23.6 ± 1.44%,–,–,–,–
O=C(Cn1cc(Cn2c3ccccc3c3cc(-c4ccc5c(c4)c4ccccc4n5Cc4cn(CC(=O)c5ccc(Cl)cc5)nn4)ccc32)nn1)c1ccc(Cl)cc1 [Compound 7],Non-toxic,20.35%,26.34%,25.14%,–,26.3 ± 0.76 µM,23.95 ± 1.83%,mixed,24.1 ± 0.0076 µM
Bacitracin [reference compound],–,–,–,–,–,125 ± 1.5 µM,–,–,–
